Here are results for 1 compound from US5637770A (priority 1991, dated 1997).

In one series the test system is nucleic acid synthesis. To be noted: background statement; cited from earlier work.
The conditions of series [1]: clinical tests in the United States; cited from earlier work.
Another series concerns the target T1, topoisomerase I (Mus musculus, UniProt Q04750).
T1 construct: Topoisomerase I was prepared from p388 mouse leukemia; endogenous in cells; host or cells: P388 mouse leukemia
T1 sequence (Q04750 1-767): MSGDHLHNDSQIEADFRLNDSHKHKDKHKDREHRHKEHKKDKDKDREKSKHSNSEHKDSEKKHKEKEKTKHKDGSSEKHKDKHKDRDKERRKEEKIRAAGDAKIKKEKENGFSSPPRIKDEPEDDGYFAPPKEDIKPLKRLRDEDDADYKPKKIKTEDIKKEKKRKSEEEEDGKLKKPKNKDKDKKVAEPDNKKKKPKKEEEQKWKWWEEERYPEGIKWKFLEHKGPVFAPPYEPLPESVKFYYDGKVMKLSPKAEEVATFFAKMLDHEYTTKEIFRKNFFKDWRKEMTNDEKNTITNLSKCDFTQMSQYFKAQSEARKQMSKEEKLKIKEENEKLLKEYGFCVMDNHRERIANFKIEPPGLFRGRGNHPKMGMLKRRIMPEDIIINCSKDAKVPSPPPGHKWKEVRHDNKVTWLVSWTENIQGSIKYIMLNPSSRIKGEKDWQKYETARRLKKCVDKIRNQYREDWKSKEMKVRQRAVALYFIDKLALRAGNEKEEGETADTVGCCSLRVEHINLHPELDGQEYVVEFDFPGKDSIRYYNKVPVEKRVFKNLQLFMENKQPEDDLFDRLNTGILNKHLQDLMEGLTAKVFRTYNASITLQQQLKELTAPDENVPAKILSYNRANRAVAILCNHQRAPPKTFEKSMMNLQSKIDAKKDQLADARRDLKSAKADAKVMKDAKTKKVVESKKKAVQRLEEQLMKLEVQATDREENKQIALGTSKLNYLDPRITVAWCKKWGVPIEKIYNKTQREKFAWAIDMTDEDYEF
Description: Topoisomerase I assay, relaxation of supercoiled SV40 DNA. In kind it is biochemical, p388 mouse leukemia. On the procedure:
Topoisomerase I was prepared from p388 mouse leukemia. One unit (the minimum amount of full relaxation of 0.5 μg SV40 DNA) of topoisomerase I,
0.5 μl of the test compounds, and 0.5 μg of SV40 DNA were added sequentially to the reaction buffer. The reaction mixture (50 μl) was incubated for 10 min and 37° C. and analyzed by electrophoresis, the gel was stained with 0.05% ethydium bromide and photographed with UV light. The DNA was quantified using a densitometor. The inhibition rate of the topoisomerase activity was calculated as [formula] where Frt and Frc are ratios of relaxed DNA to total DNA treated with topoisomerase in the presence and absence of the test drug, respectively. Fr is the proportion of relaxed DNA in untreated DNA. The IC50 of each test drug was estimated from the dose-response.

For `CC[C@@]1(O)C(=O)OCc2c1cc1n(c2=O)Cc2cc3ccccc3nc2-1` [camptohecin, camptothecin], the antitumor activity result in the series on nucleic acid synthesis is “exhibit an antitumor activity”. The “safety in clinical tests” value in series [1] is recorded as “problem in view of safety”. Besides, on topoisomerase I, the IC50 is 43.9 µM.
